This data set is described as follows: Particle size and morphology by transmission electron microscopy (TEM). Format: physicochemical. How it is done: Precipitation of beclomethasone was carried out by modifying a method published earlier, where the drug was crystallised either in pure water or in the presence of a surfactant, Tween-80 (Wang et al. 2007^xi, Matteucci et al., 2006^xii). 34.8 mM beclomethasone dipropionate (BDB, MW 521.1) solution was prepared by dissolving the BDP in methanol. 0.5 ml of BDP solution was poured into 20 ml of pure deionized water with 0-0.15 wt-% (0-208.3 μM) HFBII. The resulting aqueous solution had 0.05 wt-% BDP. Both solutions were filtered with 0.2 μm syringe filter to remove possible impurities prior to use. The receiving liquid was stirred vigorously with a magnetic stirrer and temperature of the solution was controlled by keeping the sample in an ice bath or in room temperature during the precipitation. The precipitate was observed as a turbid solution immediately after BDP addition.
Transmission electron microscopy (TEM): 20 min after precipitation 20 μl of the nanoparticle dispersions were dried on formvar film-coated copper grids with mesh size 300.
The synthesis was done as in the earlier section, except that the drug used was itraconazole. Mass ratios of 2:1, 1:1 and 1:2 of HFBII:itraconazole were tested. TEM was used to study the size and morphology of the particles. […] Monodispersity increased with increasing HFBII amount. […]

For the molecule `CCC(=O)OCC(=O)[C@@]1(OC(=O)CC)[C@@H](C)C[C@H]2[C@@H]3CCC4=CC(=O)C=C[C@]4(C)[C@@]3(Cl)[C@@H](O)C[C@@]21C` [BDP, beclomethasone dipropionate], under “precipitated from methanol into water without HFBII”, the “crystals formed (size and habit)” value was “a few micrometer long needles”. Further, the particle size entry (precipitated with HFBII at room temperature, TEM) is given as “several micrometers”.

(Values after US20120135081A1, “HYDROPHOBINS FOR DISPERSING ACTIVE AGENTS” (TEKNOLOGIAN TUTKIMUSKESKUS VTT, priority 2009, published 2012).)
